From article PMC11643962, “Exploring 4,7-Disubstituted Pyrimido[4,5-d]pyrimidines as Antiviral and Anticancer Agents” (Molecules, 2024)

Legend:
[1] = test system: Z-138 (non-Hodgkin lymphoma); assay: MTS proliferation assay, Z-138; conditions: Homo sapiens, Z-138, 72 h, read-out: Anti-Proliferative Activity (IC50) Z-138
[2] = test system: Capan-1 (pancreatic adenocarcinoma); assay: MTS proliferation assay, Capan-1; conditions: Homo sapiens, CAPAN-1, 72 h, read-out: Anti-Proliferative Activity (IC50) Capan-1
[3] = test system: NCI-H460 (lung carcinoma); assay: MTS proliferation assay, NCI-H460; conditions: Homo sapiens, NCI-H460, 72 h, read-out: Anti-Proliferative Activity (IC50) NCI-H460
in vitro [4] = conditions: dog
[5] = test system: herpes simplex virus-1 (HSV-1 KOS); assay: Antiviral CPE reduction assay, HSV-1 KOS in HEL299 cells; assay type: cell-based; conditions: Human alphaherpesvirus 1, HEL 299, MTS, mean ± SD, no unit printed on the supplement page (Table 2 of the same screen is in µM)
[6] = test system: DND-41 (acute lymphoblastic leukemia); assay: MTS proliferation assay, DND-41; conditions: Homo sapiens, DND41, 72 h, read-out: Anti-Proliferative Activity (IC50) DND-41
[7] = test system: HL-60 (acute myeloid leukemia); assay: MTS proliferation assay, HL-60; conditions: Homo sapiens, HL-60, 72 h, read-out: Anti-Proliferative Activity (IC50) HL-60
[8] = test system: respiratory syncytial virus A (RSV A Long); assay: Antiviral CPE reduction assay, RSV A Long in Hep2 cells; assay type: cell-based; conditions: human respiratory syncytial virus, HEp-2; Hep2 cells; CPE reduction, MTS; mean ± SD of two or three independent experiments; read-out: Antiviral Activity (EC50) RSV A Long
[9] = test system: influenza A/H3N2 (A/HK/7/87); assay: Antiviral CPE reduction assay, influenza A/H3N2 in MDCK cells; assay type: cell-based, influenza A virus; conditions: Influenza A virus, H3N2; MDCK cells; CPE reduction, MTS; mean ± SD of two or three independent experiments; read-out: Antiviral Activity (EC50) Influenza H3N2
[10] = test system: influenza A/H1N1 (A/Ned/378/05); assay: Antiviral CPE reduction assay, influenza A/H1N1 in MDCK cells; assay type: cell-based, influenza A virus; conditions: Influenza A virus, H1N1; MDCK cells; CPE reduction, MTS; mean ± SD of two or three independent experiments; read-out: Antiviral Activity (EC50) Influenza H1N1
Zika virus (ZikV mr766) = assay: Antiviral CPE reduction assay, Zika virus mr766 in VeroE6 cells; assay type: cell-based; conditions: Zika virus, Vero C1008, MTS, mean ± SD, no unit printed on the supplement page (Table 2 of the same screen is in µM)
HCoV-OC43 = assay: Antiviral CPE reduction assay, HCoV-OC43 in HEL299 cells; assay type: cell-based, human coronavirus OC43; conditions: Betacoronavirus 1, OC43, HEL 299, MTS, mean ± SD of two or three independent experiments
HCoV-NL63 = assay: Antiviral CPE reduction assay, HCoV-NL63 in Hep3B cells; assay type: cell-based, human coronavirus NL63; conditions: Human coronavirus NL63, MTS, mean ± SD of two or three independent experiments
[11] = test system: K-562 (chronic myeloid leukemia); assay: MTS proliferation assay, K-562; conditions: Homo sapiens, K562, 72 h, read-out: Anti-Proliferative Activity (IC50) K-562
[12] = test system: HCT-116 (colorectal carcinoma); assay: MTS proliferation assay, HCT-116; conditions: Homo sapiens, HCT-116, 72 h, read-out: Anti-Proliferative Activity (IC50) HCT-116
in vitro [13] = conditions: human
[14] = test system: yellow fever virus (YFV 17D); assay: microbe, parasite or virus in culture; assay type: cell-based; conditions: Yellow fever virus, Vero C1008, read-out: Antiviral activity (EC50) YFV 17D
[15] = test system: influenza B (B/Ned/537/05); assay: Antiviral CPE reduction assay, influenza B in MDCK cells; assay type: cell-based, influenza B virus; conditions: Influenza B virus, MDCK, read-out: Antiviral Activity (EC50) Influenza B
in vitro [16] = conditions: human; remark: listed apart in the source
HCoV-229E = assay: Antiviral CPE reduction assay, HCoV-229E in HEL299 cells; assay type: cell-based, human coronavirus 229E; conditions: Human coronavirus 229E, HEL 299, MTS, mean ± SD of two or three independent experiments
LN-229 (glioblastoma) = assay: MTS proliferation assay, LN-229; conditions: Homo sapiens, LN-229, 72 h, read-out: Anti-Proliferative Activity (IC50) LN-229
in vitro [17] = conditions: human; remark: listed apart in the source
in vitro [18] = conditions: African green monkey

SMILES | IC50 [1] | IC50 [2] | IC50 [3] | CC50 (in vitro [4]) | EC50 [5] | IC50 [6] | IC50 [7] | EC50 [8] | EC50 [9] | EC50 [10] | melting point | EC50 (Zika virus (ZikV mr766)) | EC50 (HCoV-OC43) | EC50 (HCoV-NL63) | IC50 [11] | IC50 [12] | CC50 (in vitro [13]) | EC50 [14] | EC50 [15] | CC50 (in vitro [16]) | other results
CCN(CC)CCNc1ncc2c(Nc3cccc4c3CCCC4)ncnc2n1 [Compound 7b, N^2-[2-(Diethylamino)ethyl]-N^5-(5,6,7,8-tetrahydronaphthalen-1-yl)pyrimido[4,5-d]pyrimidine-2,5-diamine] | 62.6 ± 0.8 µM | > 100 µM | > 100 µM | > 50 µM | > 50 µM | 67.1 ± 4.7 µM | > 100 µM | > 50 µM | > 50 µM | > 50 µM | 181.3 °C | > 50 µM | 34.7 ± 16.7 µM | > 50 µM | > 100 µM | > 100 µM | > 50 µM | > 50 µM | > 50 µM | > 50 µM | EC50 (HCoV-229E): 11 ± 2.7 µM; IC50 (LN-229 (glioblastoma)): > 100 µM; CC50 (in vitro [17]): > 50 µM; CC50 (in vitro [18]): > 50 µM
c1cncc(Nc2ncnc3nc(NC4CC4)ncc23)c1 [Compound 7m, N^2-cyclopropyl-N^5-(pyridin-3-yl)pyrimido[4,5-d]pyrimidine-2,5-diamine] | > 100 µM | > 100 µM | > 100 µM | > 50 µM | > 50 µM | > 100 µM | > 100 µM | > 50 µM | > 50 µM | > 50 µM | 243 °C | > 50 µM | > 50 µM | > 50 µM | > 100 µM | > 100 µM | > 50 µM | > 50 µM | > 50 µM | > 50 µM | EC50 (HCoV-229E): > 50 µM; IC50 (LN-229 (glioblastoma)): > 100 µM; CC50 (in vitro [17]): > 50 µM; CC50 (in vitro [18]): > 50 µM
C#Cc1cccc(Nc2ncnc3nc(NC4CC4)ncc23)c1 [Compound 7j, N^2-cyclopropyl-N^5-(3-ethynylphenyl)pyrimido[4,5-d]pyrimidine-2,5-diamine] | > 100 µM | > 100 µM | > 100 µM | > 50 µM | > 50 µM | > 100 µM | > 100 µM | > 50 µM | > 50 µM | > 50 µM | 296 °C | > 50 µM | > 50 µM | > 50 µM | > 100 µM | > 100 µM | > 50 µM | > 50 µM | > 50 µM | > 50 µM | EC50 (HCoV-229E): > 50 µM; IC50 (LN-229 (glioblastoma)): > 100 µM; CC50 (in vitro [17]): > 50 µM; CC50 (in vitro [18]): > 50 µM
c1cc2c(c(Nc3ncnc4nc(NC5CC5)ncc34)c1)CCC2 [Compound 7g, N^2-cyclopropyl-N^5-(2,3-dihydro-1H-inden-4-yl)pyrimido[4,5-d]pyrimidine-2,5-diamine] | > 100 µM | > 100 µM | > 100 µM | > 50 µM | > 50 µM | > 100 µM | > 100 µM | > 50 µM | > 50 µM | > 50 µM | 290 °C | > 50 µM | > 50 µM | > 50 µM | > 100 µM | > 100 µM | > 50 µM | > 50 µM | > 50 µM | > 50 µM | EC50 (HCoV-229E): ≥ 30.5 µM; IC50 (LN-229 (glioblastoma)): > 100 µM; CC50 (in vitro [17]): > 50 µM; CC50 (in vitro [18]): > 50 µM
CCN(CC)CCNc1ncc2c(Nc3cccc4c3CCC4)ncnc2n1 [Compound 7f, N^5-(2,3-dihydro-1H-inden-4-yl)-N^2-[2-(diethylamino)ethyl]pyrimido[4,5-d]pyrimidine-2,5-diamine] | > 100 µM | > 100 µM | > 100 µM | > 50 µM | > 50 µM | > 100 µM | > 100 µM | > 50 µM | > 50 µM | > 50 µM | 172.9 °C | > 50 µM | 37.3 ± 15.1 µM | > 50 µM | > 100 µM | > 100 µM | > 50 µM | > 50 µM | > 50 µM | > 50 µM | EC50 (HCoV-229E): 3.9 ± 2.9 µM; IC50 (LN-229 (glioblastoma)): > 100 µM; CC50 (in vitro [17]): > 50 µM; CC50 (in vitro [18]): > 50 µM
CN(C)CCNc1ncc2c(Nc3cccc4c3CCCC4)ncnc2n1 [Compound 7a, N^2-[2-(Dimethylamino)ethyl]-N^5-(5,6,7,8-tetrahydronaphthalen-1-yl)pyrimido[4,5-d]pyrimidine-2,5-diamine] | 58.9 ± 1.8 µM | > 100 µM | > 100 µM | > 50 µM | > 50 µM | 57.9 ± 2 µM | > 100 µM | > 50 µM | > 50 µM | > 50 µM | 176.3 °C | > 50 µM | 27.7 ± 0.6 µM | > 50 µM | 87 ± 1.3 µM | > 100 µM | > 50 µM | > 50 µM | > 50 µM | > 50 µM | EC50 (HCoV-229E): 15.8 ± 0.9 µM; IC50 (LN-229 (glioblastoma)): > 100 µM; CC50 (in vitro [17]): > 50 µM; CC50 (in vitro [18]): > 50 µM
